Read-outs that look alike come from different tables or passages of the source.
Columns and labels:
[1] = system: P. falciparum male gametocytes; assay: P. falciparum Dual Gamete Formation Assay (PfDGFA), male readout (exflagellation); format: cell-based, Plasmodium falciparum NF54; details: for Selectivity Ratio M: HepG2 Tox50 versus male IC50; for Average inhibition male (%) / % inhibition male (individual replicates) R1 / % inhibition male (individual replicates) R3 / % inhibition male (individual replicates) R4: 24h preincubation with gametocytes; for Average inhibition male (%): average of replicates; for % inhibition male (individual replicates) R1: replicate R1; for % inhibition male (individual replicates) R3: replicate R3; for % inhibition male (individual replicates) R4: replicate R4; for IC50: read-out: Male IC50; for HitlevelM: number of replicates with >50% inhibition in the male readout
Outline: (§1)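 Mature NF54 gametocytes (day 14) were incubated with compound for 24 h at 37°C under 1% O2/3% CO2, then triggered with xanthurenic acid ookinete medium plus Cy3-anti-Pfs25. Exflagellation was imaged by brightfield; after a further 24 h at 28°C, Pfs25-positive female gametes were imaged by fluorescence and counted by automated image analysis.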

HepG2 cells = assay: HepG2 cytotoxicity counter-screen; details: cytotoxic activity against HepG2 cells
[2] = system: P. falciparum female gametocytes; assay: P. falciparum Dual Gamete Formation Assay (PfDGFA), female readout (Pfs25-positive female gametes); format: cell-based, Plasmodium falciparum NF54; details: for Selectivity ratio F: HepG2 Tox50 versus female IC50; for Average inhibition female (%) / % inhibition female (individual replicates) R1 / % inhibition female (individual replicates) R3 / % inhibition female (individual replicates) R4: 24h preincubation with gametocytes; for Average inhibition female (%): average of replicates; for % inhibition female (individual replicates) R1: replicate R1; for % inhibition female (individual replicates) R3: replicate R3; for % inhibition female (individual replicates) R4: replicate R4; for IC50: read-out: Female IC50; for HitlevelF: number of replicates with >50% inhibition in the female readout
Outline: as §1

[3] = PfDGFA, 24 h incubation with gametocytes before induction, exflagellation readout
[4] = PfDGFA, 24 h incubation with gametocytes before induction, female gamete readout

Question: `COc1ccc(N2CCN(CCCCNCc3ccc(NC(=O)c4cc(Cl)cc(Cl)c4)cc3)CC2)c(OC)c1` [TCMDC-138226] was tested. Which “Selectivity Ratio M” value [1] did it give?
Answer: 3.29

Question: What about the “Average inhibition male (%)” value ([1]; PfDGFA at 2µM) of the same molecule?
Answer: 83.1%

Question: What about the “% inhibition male (individual replicates) R1” value ([1]; PfDGFA at 2µM) of the same molecule?
Answer: 85.0%

Question: And the “% inhibition male (individual replicates) R3” value ([1]; PfDGFA at 2µM)?
Answer: 71.2%

Question: What about the “% inhibition male (individual replicates) R4” value ([1]; PfDGFA at 2µM) of the same molecule?
Answer: 96.9%

Question: What about the IC50 [1, 3] of the same molecule?
Answer: 1640 nM

Question: And the HitlevelM ([1]; 2µM)?
Answer: 4

Question: And the Tox50 (HepG2 cells)?
Answer: 5.4 µM

Question: What about the “Selectivity ratio F” value [2] of the same molecule?
Answer: 1.04

Question: What about the “Average inhibition female (%)” value ([2]; PfDGFA at 2µM) of the same molecule?
Answer: 28.5%

Question: And the “% inhibition female (individual replicates) R1” value ([2]; PfDGFA at 2µM)?
Answer: 20.8%

Question: And the “% inhibition female (individual replicates) R3” value ([2]; PfDGFA at 2µM)?
Answer: 39.5%

Question: What about the “% inhibition female (individual replicates) R4” value ([2]; PfDGFA at 2µM) of the same molecule?
Answer: 12.9%

Question: And the IC50 [2, 4]?
Answer: 5220 nM

Question: What about the HitlevelF ([2]; 2µM) of the same molecule?
Answer: 0

Question: With `Cc1ccc(Cn2nc(Cl)c(N3CCNCC3)cc2=O)cc1NC(=O)Nc1ccc(-c2ccccc2)cc1.O=C(O)C(F)(F)F` [TCMDC-141698] as the molecule, how does the “Average inhibition male (%)” value ([1]; 2µM) read?
Answer: 96.8%

Question: And the “% inhibition male (individual replicates) R1” value ([1]; 2µM)?
Answer: 94.1%

Question: And the “% inhibition male (individual replicates) R3” value ([1]; 2µM)?
Answer: 94.5%

Question: What about the “% inhibition male (individual replicates) R4” value ([1]; 2µM) of the same molecule?
Answer: 100.9%

Question: And the “Selectivity Ratio M” value [1]?
Answer: 3.32

Question: And the IC50 [1, 3]?
Answer: 1200 nM

Question: And the Tox50 (HepG2 cells)?
Answer: 3.97 µM

Question: What about the “Average inhibition female (%)” value ([2]; 2µM) of the same molecule?
Answer: 53.1%

Question: And the “% inhibition female (individual replicates) R1” value ([2]; 2µM)?
Answer: 36.8%

Question: What about the “% inhibition female (individual replicates) R3” value ([2]; 2µM) of the same molecule?
Answer: 40.3%

Question: And the “% inhibition female (individual replicates) R4” value ([2]; 2µM)?
Answer: 66.3%

Question: What about the “Selectivity ratio F” value [2] of the same molecule?
Answer: 3.54

Question: And the IC50 [2, 4]?
Answer: 1120 nM

Question: Which results are given for `COc1ccc2c(CNCCCCCCNCc3c(OC)ccc4cc(OC)ccc34)c(OC)ccc2c1.CS(=O)(=O)O` [TCMDC-137300]?
Answer: Average inhibition male (%) ([1]; 2µM): 90.0%; % inhibition male (individual replicates) R1 ([1]; 2µM): 98.2%; % inhibition male (individual replicates) R3 ([1]; 2µM): 95.7%; % inhibition male (individual replicates) R4 ([1]; 2µM): 96.8%; Selectivity Ratio M [1]: 2.01; IC50 [1, 3]: 1810 nM; Tox50 (HepG2 cells): 3.63 µM; Average inhibition female (%) ([2]; 2µM): 77.0%; % inhibition female (individual replicates) R1 ([2]; 2µM): 80.6%; % inhibition female (individual replicates) R3 ([2]; 2µM): 93.8%; % inhibition female (individual replicates) R4 ([2]; 2µM): 84.0%; Selectivity ratio F [2]: 0.75; IC50 [2, 4]: 4850 nM

Question: For `CCN(CC)CCOc1ccc(C(O)(C#CC(O)(c2ccc(Br)cc2)c2ccc(OCCN(CC)CC)cc2)c2ccc(Br)cc2)cc1` (centres unmarked) [TCMDC-137199], which “Selectivity Ratio M” value [1] is on record?
Answer: 3.23

Question: What about the “Average inhibition male (%)” value ([1]; PfDGFA at 2µM) of the same molecule?
Answer: 78.4%

Question: What about the “% inhibition male (individual replicates) R1” value ([1]; PfDGFA at 2µM) of the same molecule?
Answer: 76.2%

Question: And the “% inhibition male (individual replicates) R3” value ([1]; PfDGFA at 2µM)?
Answer: 84.3%

Question: And the “% inhibition male (individual replicates) R4” value ([1]; PfDGFA at 2µM)?
Answer: 81.8%

Question: And the IC50 [1, 3]?
Answer: 610 nM

Question: And the HitlevelM ([1]; 2µM)?
Answer: 4

Question: What about the Tox50 (HepG2 cells) of the same molecule?
Answer: 1.99 µM

Question: And the “Selectivity ratio F” value [2]?
Answer: 1.56

Question: And the “Average inhibition female (%)” value ([2]; PfDGFA at 2µM)?
Answer: 19.7%

Question: And the “% inhibition female (individual replicates) R1” value ([2]; PfDGFA at 2µM)?
Answer: 20.5%

Question: What about the “% inhibition female (individual replicates) R3” value ([2]; PfDGFA at 2µM) of the same molecule?
Answer: 18.5%

Question: What about the “% inhibition female (individual replicates) R4” value ([2]; PfDGFA at 2µM) of the same molecule?
Answer: 25.4%

Question: And the IC50 [2, 4]?
Answer: 1270 nM

Question: And the HitlevelF ([2]; 2µM)?
Answer: 0

Question: Which results are given for `CCC1=C[C@@H]2CN(C1)Cc1c([nH]c3ccccc13)[C@@](C(=O)OC)(c1cc3c(cc1OC)N(C)[C@H]1[C@@](O)(C(=O)OC)[C@H](O)[C@]4(CC)C=CCN5CC[C@]31[C@@H]54)C2.O=S(=O)(O)O` [TCMDC-137769]?
Answer: Selectivity Ratio M [1]: 5697.96; IC50 ([1]; Plasmodium falciparum, 24 h): 10 nM; inhibition at 2 µM ([1]; Plasmodium falciparum, read-out: % inhibition male (individual replicates) R1): 101%; inhibition at 2 µM ([1]; Plasmodium falciparum, read-out: % inhibition male (individual replicates) R2): 99.3%; inhibition at 2 µM ([1]; Plasmodium falciparum, read-out: % inhibition male (individual replicates) R4): 103%; inhibition at 2 µM ([1]; Plasmodium falciparum, read-out: Average inhibition male (%)): 101%; Tox50 (HepG2 cells): 55.68 µM; Selectivity ratio F [2]: 5.57; IC50 ([2]; Plasmodium falciparum, 24 h): > 10000 nM; inhibition at 2 µM ([2]; Plasmodium falciparum, read-out: % inhibition female (individual replicates) R1): 4.8%; inhibition at 2 µM ([2]; Plasmodium falciparum, read-out: % inhibition female (individual replicates) R2): -7.3%; inhibition at 2 µM ([2]; Plasmodium falciparum, read-out: % inhibition female (individual replicates) R3): 2.7%; inhibition at 2 µM ([2]; Plasmodium falciparum, read-out: % inhibition female (individual replicates) R4): 9.5%; inhibition at 2 µM ([2]; Plasmodium falciparum, read-out: Average inhibition female (%)): 2.4%

Question: For `COc1cc2nc(N3CCC(CNCc4ccc(-c5ccc(C(F)(F)F)cc5)cc4)CC3)nc(N)c2cc1OC` [TCMDC-138757], which “Average inhibition male (%)” value ([1]; 2µM) is on record?
Answer: 97.9%

Question: What about the “% inhibition male (individual replicates) R1” value ([1]; 2µM) of the same molecule?
Answer: 97.9%

Question: What about the “% inhibition male (individual replicates) R3” value ([1]; 2µM) of the same molecule?
Answer: 96.8%

Question: And the “% inhibition male (individual replicates) R4” value ([1]; 2µM)?
Answer: 99.6%

Question: What about the “Selectivity Ratio M” value [1] of the same molecule?
Answer: 9.29

Question: What about the IC50 [1, 3] of the same molecule?
Answer: 220 nM

Question: What about the Tox50 (HepG2 cells) of the same molecule?
Answer: 2.05 µM

Question: What about the “Average inhibition female (%)” value ([2]; 2µM) of the same molecule?
Answer: 59.1%

Question: And the “% inhibition female (individual replicates) R1” value ([2]; 2µM)?
Answer: 32.6%

Question: What about the “% inhibition female (individual replicates) R3” value ([2]; 2µM) of the same molecule?
Answer: 30.7%

Question: What about the “% inhibition female (individual replicates) R4” value ([2]; 2µM) of the same molecule?
Answer: 89.8%

Question: And the “Selectivity ratio F” value [2]?
Answer: 8.75

Question: And the IC50 [2, 4]?
Answer: 230 nM
